Where two headings read alike, the source gives them in different places.
What was measured:
[1] = target: PHGDH (Homo sapiens (Human), UniProt O43175); experiment: 3-Phosphoglycerate Dehydrogenase (PHGDH) Fluorescence Intensity Assay, run at two NAD/3-PG ratios: PHGDH_HIGH_NAD/3-PG (250 μM NAD/500 μM 3-PG) and PHGDH_500_NAD/3-PG (500 μM NAD/500 μM 3-PG); format: biochemical
[2] = test system: MDA-MB-468; experiment: 13C3 Serine Assay MDA-MB-468 (13C3 serine levels by LC/MS/MS); format: cell-based; conditions: Homo sapiens
Method: Cells are cultivated in Medium I in a 75 mL flask.
Day 1: 5000 cells in 180 μL Medium I/well were seeded into a 96-well plate. Plates were incubated at 37° C. in a 5% CO2 incubator overnight.
Day 2: 10 mM DMSO stock from test compounds were serially pre-diluted with Medium I (See dilution scheme: for the first well 20 μL DMSO stock are diluted with 180 μL Medium I. From this 1000 μM solution further seven 1:3 (1+2) dilution are prepared with Medium I). 20 μL of these pre-dilutions are transferred in duplicates to the 96-well plate of Day 1. After incubation at 37° C. in a CO2 incubator for 1 hour the medium was removed, 100 μL PBS (tempered to room temperature) added and subsequently removed again.
180 μL Medium II were then added per well and 20 μL of serial dilutions of test compounds in Medium II (as described before) were transferred per well as above. After 180 minutes incubation at 37° C. in a CO2 incubator the medium was again cautiously removed.
After the addition of 100 μL methanol: H2O (80:20, v:v, pre-cooled to −80° C.) the plates were sealed immediately and frozen at −80° C.
At day of measurement plates were thawn, centrifuged and the supernatant evaporated. The samples were resuspended in 100 μl water for tandem mass spectrometry.
^13C3 serine levels were analyzed with LC/MS/MS using Multiple Reaction Monitoring (MRM).
IC50 values were computed from these values using a 4 parametric logistic model.

[3] = 250 μM NAD/500 μM 3-PG, read-out: IC50 (PHGDH_HIGH_NAD/3-PG)
[4] = MDA-MB-468 cells, 13C3 serine levels by LC/MS/MS, read-out: IC50 (13CSERINE)
[5] = 500 μM NAD/500 μM 3-PG, read-out: IC50 (PHGDH_500_NAD/3-PG)
[6] = MDA-MB-468, read-out: IC50 (13CSERINE)

PHGDH, sequence (O43175 2-533 limits assumed): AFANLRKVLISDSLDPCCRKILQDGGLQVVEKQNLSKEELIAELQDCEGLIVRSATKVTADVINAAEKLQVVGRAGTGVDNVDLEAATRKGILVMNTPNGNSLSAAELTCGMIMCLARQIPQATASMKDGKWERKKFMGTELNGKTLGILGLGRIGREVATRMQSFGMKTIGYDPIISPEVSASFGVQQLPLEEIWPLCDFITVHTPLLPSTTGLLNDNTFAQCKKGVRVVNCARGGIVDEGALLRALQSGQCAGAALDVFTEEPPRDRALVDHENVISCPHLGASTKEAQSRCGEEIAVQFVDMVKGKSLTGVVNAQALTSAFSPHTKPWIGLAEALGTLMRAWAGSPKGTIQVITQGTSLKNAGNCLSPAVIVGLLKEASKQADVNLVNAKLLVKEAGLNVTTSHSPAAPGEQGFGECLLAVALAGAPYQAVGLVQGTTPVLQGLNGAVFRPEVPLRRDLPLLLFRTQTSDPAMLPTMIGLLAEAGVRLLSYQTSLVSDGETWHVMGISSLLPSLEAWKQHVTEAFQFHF

Row | Structure (SMILES) | IC50 [1, 3] [nM] | IC50 [2, 4] [nM] | IC50 [1, 5] [nM] | IC50 [2, 6] [nM]
1 | Cc1cc2c(cc(C(=O)N[C@H](CO)c3ccc(S(=O)(=O)CC(=O)OC(C)C)cc3)n2C)c(Cl)c1Cl [Example 01-021, propan-2-yl 2-{4-[(1S)-1-[(4,5-dichloro-1,6-dimethyl-1H-indol-2-yl)formamido]-2-hydroxyethyl]benzenesulfonyl}acetate] | 463 | 12.6 | – | –
2 | COC(=O)C1(S(=O)(=O)c2ccc([C@@H](C)NC(=O)c3cc(-c4ccc(F)cc4)nn3C)cc2)CCOCC1 [Example 06-001, methyl 4-{4-[(1R)-1-{[3-(4-fluorophenyl)-1-methyl-1H-pyrazol-5-yl]formamido}ethyl]benzenesulfonyl}oxane-4-carboxylate] | 7700 | 25400 | – | –
3 | Cc1cc(Cl)c2cc(C(=O)N[C@H](C)c3ccc(S(=O)(=O)CC(=O)OCCS(C)(=O)=O)cc3)n(C)c2c1 [Example 09-020, 2-methanesulfonylethyl 2-{4-[(1R)-1-[(4-chloro-1,6-dimethyl-1H-indol-2-yl)formamido]ethyl]benzenesulfonyl}acetate] | 54 | 37.4 | – | –
4 | Cc1cc(Cl)c2cc(C(=O)N[C@H](C)c3ccc(S(=O)(=O)CC(=O)OCC4(C)COC4)cc3)n(C)c2c1 [Example 09-012, (3-methyloxetan-3-yl)methyl 2-{4-[(1R)-1-[(4-chloro-1,6-dimethyl-1H-indol-2-yl)formamido]ethyl]benzenesulfonyl}acetate] | 303 | 22.2 | – | –
5 | COC(=O)C1(S(=O)(=O)c2ccc([C@@H](C)NC(=O)c3cc4c(Cl)cc(C)cc4n3C)cc2)CCOCC1 [Example 05-010, methyl 4-{4-[(1R)-1-[(4-chloro-1,6-dimethyl-1H-indol-2-yl)formamido]ethyl]benzenesulfonyl}oxane-4-carboxylate] | 11200 | 3.7 | – | –
6 | CCOC(=O)CS(=O)(=O)c1ccc([C@@H](C)NC(=O)c2cc3c(Cl)cc(C)cc3n2C)cc1 [Example 01-004, ethyl 2-{4-[(1R)-1-[(4-chloro-1,6-dimethyl-1H-indol-2-yl)formamido]ethyl]benzenesulfonyl}acetate] | 964 | 29.3 | – | –
7 | COC(=O)C(C)(C)S(=O)(=O)c1ccc([C@@H](CO)NC(=O)c2cc3c(Cl)c(Cl)c(C)cc3n2C)cc1 [Example 05-017, methyl 2-{4-[(1S)-1-[(4,5-dichloro-1,6-dimethyl-1H-indol-2-yl)formamido]-2-hydroxyethyl]benzenesulfonyl}-2-methylpropanoate] | 1230 | 0.3 | 2960 | –
8 | CCOC(=O)CS(=O)(=O)c1ccc([C@@H](C)NC(=O)c2cc(-c3cccc4cc[nH]c34)nn2C)cc1 [Example 02-005, ethyl 2-{4-[(1R)-1-{[3-(1H-indol-7-yl)-1-methyl-1H-pyrazol-5-yl]formamido}ethyl]benzenesulfonyl}acetate] | 3000 | 64.8 | – | –
9 | CCOC(=O)C(C)S(=O)(=O)c1ccc([C@@H](C)NC(=O)c2cc3c(Cl)cc(C)cc3n2C)cc1 (stereo partly drawn) [Example 05-011, ethyl 2-{4-[(1R)-1-[(4-chloro-1,6-dimethyl-1H-indol-2-yl)formamido]ethyl]benzenesulfonyl}propanoate] | 5020 | 3.9 | – | –
10 | CC(=O)OCOC(=O)CS(=O)(=O)c1ccc([C@@H](C)NC(=O)c2cc(-c3ccccc3)nn2C)cc1 [Example 10-003, (acetyloxy)methyl 2-{4-[(1R)-1-[(1-methyl-3-phenyl-1H-pyrazol-5-yl)formamido]ethyl]benzenesulfonyl}acetate] | 816 | 23.7 | – | –
11 | CCOC(=O)C(C)(C)S(=O)(=O)c1ccc([C@@H](C)NC(=O)c2cc3c(Cl)cc(C)cc3n2C)cc1 [Example 05-003, ethyl 2-{4-[(1R)-1-[(4-chloro-1,6-dimethyl-1H-indol-2-yl)formamido]ethyl]benzenesulfonyl}-2-methylpropanoate] | 15900 | 30.2 | – | –
12 | CCOC(=O)CS(=O)(=O)c1ccc([C@@H](CO)NC(=O)c2cc3c(F)c(F)c(C)cc3n2C)cc1 [Example 01-028, ethyl 2-{4-[(1S)-1-[(4,5-difluoro-1,6-dimethyl-1H-indol-2-yl)formamido]-2-hydroxyethyl]benzenesulfonyl}acetate] | 267 | 7.3 | 525 | –
13 | COC(=O)CS(=O)(=O)c1ccc([C@@H](C)NC(=O)c2cc3c(Cl)c(Cl)c(C)nc3n2C)cc1 [Example 01-006, methyl 2-{4-[(1R)-1-({4,5-dichloro-1,6-dimethyl-1H-pyrrolo[2,3-b]pyridin-2-yl}formamido)ethyl]benzenesulfonyl}acetate] | 485 | 88.8 | – | –
14 | Cc1cc(Cl)c2cc(C(=O)N[C@H](C)c3ccc(S(=O)(=O)CC(=O)NO)cc3)n(C)c2c1 [Example 14-020, 4-chloro-N-[(1R)-1-{4-[(hydroxycarbamoyl)methanesulfonyl]phenyl}ethyl]-1,6-dimethyl-1H-indole-2-carboxamide] | 172 | 136 | – | –
15 | Cc1cc(Cl)c2cc(C(=O)N[C@H](C)c3ccc(S(=O)(=O)C(C)(C)C(=O)OC(C)C)cc3)n(C)c2c1 [Example 05-012, propan-2-yl 2-{4-[(1R)-1-[(4-chloro-1,6-dimethyl-1H-indol-2-yl)formamido]ethyl]benzenesulfonyl}-2-methylpropanoate] | 25100 | 906 | – | –
16 | Cc1cc2c(cc(C(=O)N[C@H](CO)c3ccc(S(=O)(=O)CC(=O)O)cc3)n2C)c(Cl)c1Cl [Example 03-006, 2-{4-[(1S)-1-[(4,5-dichloro-1,6-dimethyl-1H-indol-2-yl)formamido]-2-hydroxyethyl]benzenesulfonyl}acetic acid] | 3 | – | 4 | 203
17 | C[C@@H](NC(=O)c1cc(-c2ccc(F)cc2)nn1C)c1ccc(S(=O)(=O)CC(=O)OCC2(C)COC2)cc1 [Example 10-006, (3-methyloxetan-3-yl)methyl 2-{4-[(1R)-1-{[3-(4-fluorophenyl)-1-methyl-1H-pyrazol-5-yl]formamido}ethyl]benzenesulfonyl}acetate] | 938 | 103 | – | –
18 | CCOC(=O)CS(=O)(=O)c1ccc([C@@H](C)NC(=O)c2cc3c(Cl)c(Cl)c(C)nc3n2C)cc1 [Example 01-016, ethyl 2-{4-[(1R)-1-({4,5-dichloro-1,6-dimethyl-1H-pyrrolo[2,3-b]pyridin-2-yl}formamido)ethyl]benzenesulfonyl}acetate] | 1090 | 72.1 | – | –
19 | COCCC(C(=O)OC)S(=O)(=O)c1ccc([C@@H](C)NC(=O)c2cc3c(Cl)cc(C)cc3n2C)cc1 (stereo partly drawn) [Example 05-005, methyl 2-{4-[(1R)-1-[(4-chloro-1,6-dimethyl-1H-indol-2-yl)formamido]ethyl]benzenesulfonyl}-4-methoxybutanoate] | 652 | 831 | – | –
20 | COC(=O)CS(=O)(=O)c1ccc([C@@H](CO)NC(=O)c2cc(-c3ccccc3)nn2C)cc1 [Example 02-007, methyl 2-{4-[(1S)-2-hydroxy-1-[(1-methyl-3-phenyl-1H-pyrazol-5-yl)formamido]ethyl]benzenesulfonyl}acetate] | 4340 | 167 | – | –
21 | Cc1cc(Cl)c2cc(C(=O)N[C@H](C)c3ccc(S(=O)(=O)C(C)(C)C(=O)O)cc3)n(C)c2c1 [Example 07-005, 2-{4-[(1R)-1-[(4-chloro-1,6-dimethyl-1H-indol-2-yl)formamido]ethyl]benzenesulfonyl}-2-methylpropanoic acid] | 12 | 1190 | – | –
22 | COCCOC(=O)CS(=O)(=O)c1ccc([C@@H](C)NC(=O)c2cc3c(Cl)c(Cl)c(C)nc3n2C)cc1 [Example 09-003, 2-methoxyethyl 2-{4-[(1R)-1-({4,5-dichloro-1,6-dimethyl-1H-pyrrolo[2,3-b]pyridin-2-yl}formamido)ethyl]benzenesulfonyl}acetate] | 286 | 82.8 | – | –
23 | Cc1cc2c(cc(C(=O)N[C@H](C)c3ccc(S(=O)(=O)CC(=O)O)cc3)n2C)c(Cl)c1Cl [Example 03-005, 2-{4-[(1R)-1-[(4,5-dichloro-1,6-dimethyl-1H-indol-2-yl)formamido]ethyl]benzenesulfonyl}acetic acid] | 4 | – | 9 | 1070
24 | CC(C)OC(=O)CS(=O)(=O)c1ccc([C@@H](C)NC(=O)c2cc(-c3ccc(F)cc3)nn2C)cc1 [Example 02-008, propan-2-yl 2-{4-[(1R)-1-{[3-(4-fluorophenyl)-1-methyl-1H-pyrazol-5-yl]formamido}ethyl]benzenesulfonyl}acetate] | 4840 | 68.4 | – | –
25 | CCC(C(=O)OC)S(=O)(=O)c1ccc([C@@H](C)NC(=O)c2cc3c(Cl)cc(C)cc3n2C)cc1 (stereo partly drawn) [Example 05-013, methyl 2-{4-[(1R)-1-[(4-chloro-1,6-dimethyl-1H-indol-2-yl)formamido]ethyl]benzenesulfonyl}butanoate] | 5530 | 166 | – | –
26 | Cc1cc(Cl)c2cc(C(=O)N[C@H](CO)c3ccc(S(=O)(=O)CC(=O)O)cc3)n(C)c2c1 [Example 03-002, 2-{4-[(1S)-1-[(4-chloro-1,6-dimethyl-1H-indol-2-yl)formamido]-2-hydroxyethyl]benzenesulfonyl}acetic acid] | 6 | – | – | 1380
27 | COC(=O)CS(=O)(=O)c1ccc([C@@H](C)NC(=O)c2cc3cc(Cl)c(-c4cnn(CCN5CCOCC5)c4)cc3n2C)cc1 [Example 01-027, methyl 2-{4-[(1R)-1-[(5-chloro-1-methyl-6-{1-[2-(morpholin-4-yl)ethyl]-1H-pyrazol-4-yl}-1H-indol-2-yl)formamido]ethyl]benzenesulfonyl}acetate] | 248 | 34.2 | – | –
28 | COC(=O)CS(=O)(=O)c1ccc([C@@H](C)NC(=O)c2cc(-c3ccc(F)cc3)nn2C)cc1 [Example 02-001, methyl 2-{4-[(1R)-1-{[3-(4-fluorophenyl)-1-methyl-1H-pyrazol-5-yl]formamido}ethyl]benzenesulfonyl}acetate] | 1260 | 32.8 | – | –
